Test results taken from PubChem BioAssay AID624323 (Sanford-Burnham Center for Chemical Genomics, 2012).
Values after ≈ are worked out from the molar mass of the structure shown. Active and inactive are the calls of the source. No rule for the calls is given here.

Test system: aqueous buffer solubility, pH 5.0/6.2/7.4
Assay: aqueous buffer solubility at three pH values, ADME assay, biophysical, set 2 (AID 624323)
Conditions: at 100 µM, stronger effect = higher value
[1] = measured here: solubility at pH 5.0
[2] = measured here: solubility at pH 6.2

| SMILES | solubility | solubility [1] [µg/mL] | solubility [2] [µg/mL] |
| --- | --- | --- | --- |
| COc1ccc(OC)c(S(=O)(=O)Nc2cnc3ccccc3c2)c1 | 25.8 µg/mL (≈ 74.9 µM) | 20.8 (≈ 60.4 µM) | 25.7 (≈ 74.6 µM) |
| Oc1cc(O)cc(/C=C/c2ccc(O)c(O)c2)c1 | 10.1 µg/mL (≈ 41.4 µM) | > 24 | > 24 |
| O=c1oc2c(O)c(O)cc3c(=O)oc4c(O)c(O)cc1c4c23 | > 30 µg/mL | 7.9 (≈ 26.1 µM) | > 30 |
| O=C(O)CCC(NS(=O)(=O)c1ccc(-c2ccccc2)cc1)C(=O)O (stereo not given) | > 36 µg/mL | > 36 | > 36 |
| Cc1ccnc(NC(=O)CCCOc2cc(=O)n(C)c3ccccc23)c1 | 9.1 µg/mL (inactive) (≈ 25.9 µM) | 19 (≈ 54.1 µM) | 9.3 (≈ 26.5 µM) |
| c1ccc2c(Nc3nnc(-c4ccncc4)s3)cccc2c1 | 3.5 µg/mL (inactive) (≈ 11.5 µM) | 3.3 (≈ 10.8 µM) | 3.5 (≈ 11.5 µM) |
| CN1CSC(=S)N(C)C1 | > 16 µg/mL | 12.4 (≈ 76.4 µM) | 12.7 (≈ 78.3 µM) |
| Cc1ccc(S(=O)(=O)C(c2ccccc2)c2c(C)noc2C)cc1 (stereo not given) | 16.5 µg/mL (≈ 48.3 µM) | 15.5 (≈ 45.4 µM) | 16.9 (≈ 49.5 µM) |
| O=C1CCCC2=C1C1(CCCC1)N=C(Nc1nc3ccccc3o1)N2 | 0.07 µg/mL (inactive) (≈ 0.208 µM) | 0.07 (≈ 0.208 µM) | 0.09 (≈ 0.268 µM) |
| CCOC(=O)C(C)Oc1cccc2c(=O)n(CC(=O)Nc3ccc4c(c3)OCCO4)ccc12 (stereo not given) | 0.36 µg/mL (inactive) (≈ 0.796 µM) | 0.27 (≈ 0.597 µM) | 0.31 (≈ 0.685 µM) |
| O=C(COC(=O)C12CC3CC(CC(C3)C1)C2)NCc1ccco1 | 2.6 µg/mL (inactive) (≈ 8.19 µM) | < 0.1 | 4.2 (≈ 13.2 µM) |
| C=CCn1c(SCC(=O)c2ccc(O)c(O)c2)nnc1-c1ccccc1OC | 24 µg/mL (≈ 60.4 µM) | 4.5 (≈ 11.3 µM) | 5.3 (≈ 13.3 µM) |
| Cc1ccc(C)c(NS(=O)(=O)c2cc(C(=O)Nc3ccccc3-c3ccccc3)ccc2Cl)c1 | 0.81 µg/mL (inactive) (≈ 1.65 µM) | < 0.1 | < 0.1 |
| Cc1ccc(C(=O)n2c3ccccc3c3ccccc32)cc1 | < 0.01 µg/mL (inactive) | < 0.01 | < 0.01 |
| O=c1[nH]c(SCc2ccc(Cl)cc2)nc2c1CCC2 | 0.94 µg/mL (inactive) (≈ 3.21 µM) | 0.45 (≈ 1.54 µM) | 0.52 (≈ 1.78 µM) |
| CCOc1ccc(NC(=S)N2CCC(C(O)(c3ccccc3)c3ccccc3)CC2)cc1 | 0.37 µg/mL (inactive) (≈ 0.828 µM) | 1.1 (≈ 2.46 µM) | 0.8 (≈ 1.79 µM) |
| CCOc1ccc(-c2nc(-c3ccncc3)no2)cc1OCC | 1.3 µg/mL (inactive) (≈ 4.18 µM) | 1.1 (≈ 3.53 µM) | 1.3 (≈ 4.18 µM) |
| CC1CCCN(C(C(=O)Nc2ccc3c(c2)OCCO3)c2ccccc2)C1 (stereo not given) | 1.7 µg/mL (inactive) (≈ 4.64 µM) | > 36 | > 36 |
| Cc1ccc(NC(=O)CCC(=O)N/N=C/c2ccc([N+](=O)[O-])o2)cc1C | 0.29 µg/mL (inactive) (≈ 0.809 µM) | 0.19 (≈ 0.53 µM) | 0.3 (≈ 0.837 µM) |
| O=C1C2CC=CCC2C(=O)N1c1n[nH]c(-c2ccccc2)n1 (stereo not given) | > 29 µg/mL | 16 (≈ 54.4 µM) | 20.2 (≈ 68.6 µM) |
| Cc1ccc(S(=O)(=O)n2c(N)nc3ccccc32)cc1 | 2.4 µg/mL (inactive) (≈ 8.35 µM) | 2.3 (≈ 8 µM) | 2.4 (≈ 8.35 µM) |
| CC[C@H]1CN2CCc3cc(OC)c(OC)cc3[C@@H]2C[C@@H]1C[C@H]1NCCc2cc(OC)c(OC)cc21 | > 55 µg/mL | > 55 | > 55 |
| Cc1ccccc1N1CCN(c2ncnc3c2cnn3Cc2ccc(Cl)cc2)CC1 | < 0.01 µg/mL (inactive) | 0.03 (≈ 0.0716 µM) | < 0.01 |
| CCCOc1ccc(-c2nc(OC)c3ccccc3n2)cc1 | 0.02 µg/mL (inactive) (≈ 0.0679 µM) | 0.05 (≈ 0.17 µM) | < 0.01 |
| O=C1NCCCc2c1oc1ccc(O)cc21 | > 22 µg/mL | > 22 | > 22 |
